Reference: ChEMBL document CHEMBL1201862, “PubChem BioAssay data set” (2004)
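In this assay, cells in 96-well plates receive the compound at five concentrations for 48 hours. Endpoints are linearly interpolated between the surrounding concentrations. At the GI50, growth is halved.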 Activity calls are given as the source filed them. No stated cut-off is given here; in the data, active = GI50 up to about 1.1 µM and inactive = higher.

How the values were obtained:
Experiment in all cases: growth of human tumour cells (NCI), 48 h
[1] = system: 786-0
[2] = system: A549
[3] = system: ACHN
[4] = system: CAKI-1
[5] = system: CCRF-CEM
[6] = system: COLO 205
[7] = system: DLD-1
[8] = system: DMS-114
[9] = system: DMS-273
[10] = system: EKVX
[11] = system: HCC 2998
[12] = system: HCT-15
[13] = system: HL-60
[14] = system: HOP-62
[15] = system: HOP-92
[16] = system: IGROV-1
[17] = system: K562
[18] = system: KM-20L2
[19] = system: KM12
[20] = system: LOX IMVI
[21] = system: LXFL 529
[22] = system: M14
[23] = system: M19-MEL
[24] = system: MOLT-4
[25] = system: Malme-3M
[26] = system: NCI-H23
[27] = system: NCI-H460
[28] = system: NCI-H522
[29] = system: OVCAR-3
[30] = system: OVCAR-4
[31] = system: OVCAR-5
[32] = system: OVCAR-8
[33] = system: RPMI-8226
[34] = system: RXF 393
[35] = system: SF-268
[36] = system: SF-295
[37] = system: SK-MEL-28
[38] = system: SK-MEL-2
[39] = system: SK-MEL-5
[40] = system: SK-OV-3
[41] = system: SN12C
[42] = system: SNB-19
[43] = system: SNB-75
[44] = system: SNB-78
[45] = system: SW-620
[46] = system: TK-10
[47] = system: UACC-257
[48] = system: UACC-62
[49] = system: UO-31
[50] = system: XF498
[51] = system: A498
[52] = system: HCT-116
[53] = system: HOP-18
[54] = system: HT-29
[55] = system: NCI-H226
[56] = system: SF-539
[57] = system: SR
[58] = system: U-251

CN1CCN(c2nc(N)c(Br)c(Cl)n2)CC1
GI50 [1]: > 100 µM (inactive) | GI50 [2]: > 100 µM (inactive) | GI50 [3]: > 100 µM (inactive) | GI50 [4]: > 100 µM (inactive) | GI50 [5]: > 100 µM (inactive) | GI50 [6]: > 100 µM (inactive) | GI50 [7]: > 100 µM (inactive) | GI50 [8]: > 100 µM (inactive) | GI50 [9]: > 100 µM (inactive) | GI50 [10]: > 100 µM (inactive) | GI50 [11]: > 100 µM (inactive) | GI50 [12]: > 100 µM | GI50 [13]: > 100 µM (inactive) | GI50 [14]: > 100 µM (inactive) | GI50 [15]: 54.3 µM (inactive) | GI50 [16]: > 100 µM (inactive) | GI50 [17]: > 100 µM (inactive) | GI50 [18]: > 100 µM (inactive) | GI50 [19]: > 100 µM (inactive) | GI50 [20]: > 100 µM (inactive) | GI50 [21]: > 100 µM (inactive) | GI50 [22]: > 100 µM (inactive) | GI50 [23]: > 100 µM (inactive) | GI50 [24]: > 100 µM (inactive) | GI50 [25]: > 100 µM (inactive) | GI50 [26]: > 100 µM (inactive) | GI50 [27]: > 100 µM (inactive) | GI50 [28]: > 100 µM (inactive) | GI50 [29]: > 100 µM (inactive) | GI50 [30]: > 100 µM (inactive) | GI50 [31]: > 100 µM (inactive) | GI50 [32]: > 100 µM (inactive) | GI50 [33]: > 100 µM (inactive) | GI50 [34]: > 100 µM (inactive) | GI50 [35]: > 100 µM (inactive) | GI50 [36]: > 100 µM (inactive) | GI50 [37]: > 100 µM (inactive) | GI50 [38]: > 100 µM (inactive) | GI50 [39]: > 100 µM (inactive) | GI50 [40]: > 100 µM (inactive) | GI50 [41]: > 100 µM (inactive) | GI50 [42]: > 100 µM (inactive) | GI50 [43]: 58.3 µM (inactive) | GI50 [44]: > 100 µM (inactive) | GI50 [45]: > 100 µM (inactive) | GI50 [46]: > 100 µM (inactive) | GI50 [47]: > 100 µM (inactive) | GI50 [48]: > 100 µM (inactive) | GI50 [49]: > 100 µM (inactive) | GI50 [50]: > 100 µM (inactive)

Nc1ccn(CCO)c(=O)n1
GI50 [1]: > 100 µM (inactive) | GI50 [51]: > 100 µM (inactive) | GI50 [2]: > 100 µM (inactive) | GI50 [3]: > 100 µM (inactive) | GI50 [4]: > 100 µM (inactive) | GI50 [5]: > 100 µM (inactive) | GI50 [6]: > 100 µM (inactive) | GI50 [7]: > 100 µM (inactive) | GI50 [8]: > 100 µM (inactive) | GI50 [9]: > 100 µM (inactive) | GI50 [10]: > 100 µM (inactive) | GI50 [11]: > 100 µM (inactive) | GI50 [52]: > 100 µM (inactive) | GI50 [12]: > 100 µM | GI50 [13]: > 100 µM (inactive) | GI50 [53]: > 100 µM (inactive) | GI50 [14]: > 100 µM (inactive) | GI50 [15]: > 100 µM (inactive) | GI50 [54]: > 100 µM (inactive) | GI50 [16]: > 100 µM (inactive) | GI50 [17]: > 100 µM (inactive) | GI50 [18]: > 100 µM (inactive) | GI50 [19]: > 100 µM (inactive) | GI50 [20]: > 100 µM (inactive) | GI50 [21]: > 100 µM (inactive) | GI50 [22]: > 100 µM (inactive) | GI50 [23]: > 100 µM (inactive) | GI50 [25]: > 100 µM (inactive) | GI50 [55]: > 100 µM (inactive) | GI50 [27]: > 100 µM (inactive) | GI50 [28]: > 100 µM (inactive) | GI50 [29]: > 100 µM (inactive) | GI50 [30]: > 100 µM (inactive) | GI50 [31]: > 100 µM (inactive) | GI50 [32]: > 100 µM (inactive) | GI50 [33]: > 100 µM (inactive) | GI50 [34]: > 100 µM (inactive) | GI50 [35]: > 100 µM (inactive) | GI50 [36]: > 100 µM (inactive) | GI50 [56]: > 100 µM (inactive) | GI50 [37]: > 100 µM (inactive) | GI50 [38]: > 100 µM (inactive) | GI50 [39]: > 100 µM (inactive) | GI50 [40]: > 100 µM (inactive) | GI50 [41]: > 100 µM (inactive) | GI50 [43]: > 100 µM (inactive) | GI50 [44]: > 100 µM (inactive) | GI50 [57]: > 100 µM (inactive) | GI50 [45]: > 100 µM (inactive) | GI50 [46]: > 100 µM (inactive) | GI50 [58]: > 100 µM (inactive) | GI50 [47]: > 100 µM (inactive) | GI50 [48]: > 100 µM (inactive) | GI50 [49]: > 100 µM (inactive)

CC(C)(C)C1=CC(=C2C(=O)C(=O)c3ccccc3C2=O)C=C(C(C)(C)C)C1=O
GI50 [1]: 34.5 µM (inactive) | GI50 [51]: < 0.01 µM (active) | GI50 [2]: > 100 µM (inactive) | GI50 [3]: 83.9 µM (inactive) | GI50 [4]: 52.1 µM (inactive) | GI50 [5]: 36.5 µM (inactive) | GI50 [6]: 42.1 µM (inactive) | GI50 [7]: 36.6 µM (inactive) | GI50 [8]: 31.3 µM (inactive) | GI50 [9]: 59.8 µM (inactive) | GI50 [10]: 35.5 µM (inactive) | GI50 [11]: > 100 µM (inactive) | GI50 [52]: 19.2 µM (inactive) | GI50 [12]: 35.5 µM | GI50 [13]: 29.4 µM (inactive) | GI50 [53]: 36.2 µM (inactive) | GI50 [14]: > 100 µM (inactive) | GI50 [15]: 28.8 µM (inactive) | GI50 [54]: > 100 µM (inactive) | GI50 [16]: 24.1 µM (inactive) | GI50 [17]: 32.1 µM (inactive) | GI50 [18]: > 100 µM (inactive) | GI50 [19]: > 100 µM (inactive) | GI50 [20]: 37.1 µM (inactive) | GI50 [21]: 26.9 µM (inactive) | GI50 [22]: 37.5 µM (inactive) | GI50 [23]: 75.3 µM (inactive) | GI50 [25]: 26.5 µM (inactive) | GI50 [26]: 32.7 µM (inactive) | GI50 [27]: 85.5 µM (inactive) | GI50 [28]: 18.7 µM (inactive) | GI50 [29]: 33 µM (inactive) | GI50 [31]: > 100 µM (inactive) | GI50 [32]: 51.3 µM (inactive) | GI50 [33]: 23.8 µM (inactive) | GI50 [35]: > 100 µM (inactive) | GI50 [36]: > 100 µM (inactive) | GI50 [56]: 82.2 µM (inactive) | GI50 [37]: > 100 µM (inactive) | GI50 [38]: > 100 µM (inactive) | GI50 [39]: 48.5 µM (inactive) | GI50 [40]: > 100 µM (inactive) | GI50 [41]: 72.9 µM (inactive) | GI50 [42]: > 100 µM (inactive) | GI50 [43]: > 100 µM (inactive) | GI50 [44]: > 100 µM (inactive) | GI50 [45]: 36 µM (inactive) | GI50 [46]: 84.9 µM (inactive) | GI50 [58]: > 100 µM (inactive) | GI50 [47]: 29.4 µM (inactive) | GI50 [48]: 32.7 µM (inactive) | GI50 [49]: 43.7 µM (inactive)
